Where a name gives a salt, the structure may show the parent alone. Read-outs that look alike come from different tables or passages of the source.
Legend:
[1] = tested on: K. pneumoniae expressing the Class A carbapenemase KPC-2; test: microbe, parasite or virus in culture; format: cell-based
Description: (§1) To determine the ability of test compounds to potentiate the inhibition of the growth of bacterial strains producing beta-lactamase enzymes, classic cell based screening assays were employed. Five bacteria strains producing beta-lactamase enzymes were used: K. pneumoniae expressing the Class A Extended Spectrum Beta-Lactamase (ESBL) CTX-M-15, E. coli expressing the Class A ESBL SHV-5, E. cloacae expressing the Class C P99+, K. pneumoniae expressing the Class A carbapenemase KPC-2, and P. aeruginosa expressing the Class B metallo β-lactamase VIM-2. In order to evaluate the ability of test compounds to inhibit beta-lactamase activity, Applicants used a modification of the broth microdilution assay. The assay was conducted in Cation Adjusted Mueller Hinton Broth (CAMHB, BD # 212322, BD Diagnostic Systems, Sparks, Md.). Bacteria strains were grown for 3-5 hours in CAMBH broth. All five strains were grown in presence of 50 μg/mL ampicillin to ensure resistance is maintained. In the meantime, test compounds were diluted in DMSO to a 0.1 mg/mL stock. The compounds were added to a microtiter plate and were diluted in 2-fold serial dilutions in CAMHB in a final concentration range of 8 μg/mL to 0.015 μg/ml. […] Each of these compound plates are made in quadruplicate, one for each bacteria strain. In addition to the titration of test compounds the MICs of a panel of cephalosporins is also tested to ensure the strains are behaving consistently from test to test. Once the test compound and cephalosporin are added the plates can be inoculated. Inocula are conducted according to CLSI broth microdilution method. After inoculation the plates are incubated for 16-20 hours at 37° C. then the Minimal Inhibitory Concentration (MIC) of the test compound is determined visually.
(§2) Using the methodology described above, examples of the current invention were evaluated for their ability to inhibit the growth of β-lactamase producing bacteria in the presence of a β-lactam antibiotic.

OXA-23 β-lactamase = molecular target: T1, OXA-23 β-lactamase (Acinetobacter baumannii, UniProt Q9L4P2); test: β-lactamase enzyme inhibition assay (nitrocefin substrate), OXA-23 crude extract; format: biochemical; conditions: nitrocefin 100 μM, 37° C., PBS pH 7.0; read-out: OXA-23 IC50
T1 construct: crude β-lactamase extracts were prepared from 20 ml overnight cultures; endogenous in cells; host or cells: Acinetobacter baumannii cells containing OXA-23 (crude freeze-thaw extract)
Procedure: For OXA-23 β-lactamase, crude β-lactamase extracts were prepared from 20 ml overnight cultures with shaking. Acenitobacter baumanni cells containing OXA-23 were further diluted 10-fold and grown to mid-log phase (OD at 600 nm, 0.5-0.8) in Mueller-Hinton II (MH-II) broth at 37° C. The cells were pelleted at 5000 g, washed and resuspended in 2 mL PBS pH 7.0. The β-lactamases were extracted by four cycles of freezing and thawing followed by centrifugation. β-lactamase activity in the extracts was measured with the chromogenic cephalosporin nitrocefin. The amount of protein in each β-lactamase preparation was determined by the bicinchoninic acid (BCA) assay.
(§3) β-lactamase Inhibition. To determine the level of inhibition of β-lactamase enzymes, compounds were diluted in PBS at pH 7.0 to yield concentrations between 100 and 0.005 μM in microtiter plates. An equal volume of diluted enzyme stock was added, and the plates were incubated at 37° C. for 10 min. Nitrocefin solution was then dispensed as substrate into each well at a final concentration of 100 μM, and the plates were immediately read with the kinetic program at 486 nm for 10 min on the SPECTRAMAX® Plus^384 (high-throughput microplate spectrophotometer; Molecular Devices Corp., Sunnyvale, Calif.). Maximum rates of metabolism were then compared to those in control wells (without inhibitors), and percentages of enzyme inhibition were calculated for each concentration of inhibitor. The concentration of inhibitor needed to reduce the initial rate of hydrolysis of substrate by 50% (IC50) was calculated as the residual activity of β-lactamase at 486 nm using the SoftMax Pro 5.0 software (Molecular Devices Corp.).

CTX-M15 β-lactamase = molecular target: T2, CTX-M15 β-lactamase (Escherichia coli, UniProt Q9EXV5); test: β-lactamase enzyme inhibition assay (nitrocefin substrate), CTXM-15; format: biochemical
T2 construct: expressed as native untagged proteins; made in house; host or cells: E. coli BL21(DE3)
Procedure: (§4) Isolation of β-lactamases. For SHV-5, p99 AmpC, KPC-2 and CTX-M15 β-lactamases, E. coli BL21(DE3) bacterial cells carrying expression plasmids (expressed as native untagged proteins) for the individual β-lactamases were grown in 1 L of Superbroth (Teknova Inc. Hollister, Calif.) supplemented with 100 μg/ml kanamycin and 1×5052 (0.5% glycerol, 0.05% glucose and 0.2% α-lactose) at 35° C. for 18-20 hours. Cells were harvested by centrifugation (4,000×g, 4° C., 20 min), and resuspended in 50 ml of 10 mM HEPES pH 7.5 (1/20 of the initial volume). The cells were lysed by sonication (5 pulses of 45 seconds) at 45 W on ice. The lysates were clarified by centrifugation at 10,000×g for 40 minutes at 4° C. Samples were diluted 5-fold in 50 mM sodium acetate pH 5.0, stored overnight at 4° C., after which they were centrifuged at 10,000×g for 30 minutes to clarify, and filtered through 0.45 μm filters. The samples were loaded onto a 5 ml Capto S sepharose cation exchange column (GE Healthcare) pre-equilibrated with 50 mM sodium acetate pH 5.0. The column was washed with 5 column volumes of 50 mM sodium acetate pH 5.0 to wash out unbound protein and a linear gradient of NaCl (0 to 500 mM) was used to elute the protein (over 16 CV) from the column. Fractions were assayed for β-lactamase activity using Centa (Calbiochem, Gibbstown, N.J.) as a reporter β-lactamase substrate for activity in the isolated fractions. Active fractions were pooled, concentrated and further purified by gel filtration chromatography on a Superdex 75 prep grade gel filtration column (GE Healthcare, Piscataway, N.J.) pre-equilibrated in 50 mM Hepes pH 7.5, 150 mM NaCl. Active fractions were pooled concentrated, quantitated by BCA protein determination (Thermo Scientific, Rockford, Ill.), and frozen at −80° C. in 20% glycerol until use.
as §3
(§5) Using the methodology described above, examples of the current invention were evaluated for their ability to inhibit β-lactamase enzymes. The results of these assays are summarized in Table 2 for representative enzymes across different subtypes (note SHV-5 and CTXM-15 exemplify different subclasses of Ambler Class A Extended Spectrum Beta Lactamases, KPC-2 exemplifies Class A carbapenemases, P99 represents chromosomal Class C AmpC, VIM-2 exemplifies subclass B1 of metallo-β-lactamases, and OXA-23 represents chromosome-encoded Class D oxacillin-hydrolyzing β-lactamases), NT=not tested.

SHV-5 β-lactamase = molecular target: T3, SHV-5 β-lactamase (Klebsiella pneumoniae, UniProt P0A3M1); test: β-lactamase enzyme inhibition assay (nitrocefin substrate), SHV-5; format: biochemical
T3 construct: expressed as native untagged proteins; made in house; host or cells: E. coli BL21(DE3)
Procedure: as §4, §3, §5

[2] = tested on: E. cloacae expressing the Class C P99+; test: In vitro antibacterial assay of β-lactamase inhibition (broth microdilution MIC), E. cloacae P99+; format: cell-based
Description: as §1, §2

[3] = tested on: K. pneumoniae expressing the Class A Extended Spectrum Beta-Lactamase (ESBL) CTX-M-15; test: In vitro antibacterial assay of β-lactamase inhibition (broth microdilution MIC), K. pneumoniae CTX-M-15; format: cell-based
Description: as §1, §2

KPC-2 β-lactamase = molecular target: T4, KPC-2 β-lactamase (Klebsiella pneumoniae, UniProt Q9F663); test: β-lactamase enzyme inhibition assay (nitrocefin substrate), KPC-2; format: biochemical
T4 construct: expressed as native untagged proteins; made in house; host or cells: E. coli BL21(DE3)
Procedure: as §4, §3, §5

[4] = tested on: E. coli expressing the Class A ESBL SHV-5; test: In vitro antibacterial assay of β-lactamase inhibition (broth microdilution MIC), E. coli SHV-5; format: cell-based
Description: as §1, §2

p99 AmpC β-lactamase = molecular target: T5, p99 AmpC β-lactamase (Enterobacter cloacae, UniProt P05364); test: β-lactamase enzyme inhibition assay (nitrocefin substrate), P99 AmpC; format: biochemical
T5 construct: expressed as native untagged proteins; made in house; host or cells: E. coli BL21(DE3)
Procedure: as §4, §3, §5

[5] = tested on: P. aeruginosa expressing the Class B metallo β-lactamase VIM-2; test: In vitro antibacterial assay of β-lactamase inhibition (broth microdilution MIC), P. aeruginosa VIM-2; format: cell-based; conditions: in presence of Ceftazidime 16 μg/mL (Examples 1-56)
Description: as §1, §2

[6] = in presence of Ceftazidime 8 μg/ml (Examples 1-56)
[7] = nitrocefin 100 μM, 37° C., PBS pH 7.0, read-out: P99 AmpC IC50
[8] = in presence of Piperacillin 16 μg/ml (Examples 57-65)

T4 sequence (Q9F663 25-293 limits assumed): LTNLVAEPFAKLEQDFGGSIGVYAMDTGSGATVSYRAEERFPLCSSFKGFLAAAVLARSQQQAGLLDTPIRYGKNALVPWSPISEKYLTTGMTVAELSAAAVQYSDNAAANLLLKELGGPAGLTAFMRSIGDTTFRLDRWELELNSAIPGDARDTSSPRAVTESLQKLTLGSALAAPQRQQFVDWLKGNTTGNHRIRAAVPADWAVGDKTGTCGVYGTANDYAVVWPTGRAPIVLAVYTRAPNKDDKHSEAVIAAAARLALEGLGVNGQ
T1 sequence (Q9L4P2 18-273): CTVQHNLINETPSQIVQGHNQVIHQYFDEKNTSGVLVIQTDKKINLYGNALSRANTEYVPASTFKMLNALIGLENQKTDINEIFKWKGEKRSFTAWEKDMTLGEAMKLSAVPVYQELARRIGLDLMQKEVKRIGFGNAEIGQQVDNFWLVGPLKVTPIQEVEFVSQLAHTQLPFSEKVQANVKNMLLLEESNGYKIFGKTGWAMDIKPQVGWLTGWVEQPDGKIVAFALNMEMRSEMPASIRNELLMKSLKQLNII
T5 sequence (P05364 21-381): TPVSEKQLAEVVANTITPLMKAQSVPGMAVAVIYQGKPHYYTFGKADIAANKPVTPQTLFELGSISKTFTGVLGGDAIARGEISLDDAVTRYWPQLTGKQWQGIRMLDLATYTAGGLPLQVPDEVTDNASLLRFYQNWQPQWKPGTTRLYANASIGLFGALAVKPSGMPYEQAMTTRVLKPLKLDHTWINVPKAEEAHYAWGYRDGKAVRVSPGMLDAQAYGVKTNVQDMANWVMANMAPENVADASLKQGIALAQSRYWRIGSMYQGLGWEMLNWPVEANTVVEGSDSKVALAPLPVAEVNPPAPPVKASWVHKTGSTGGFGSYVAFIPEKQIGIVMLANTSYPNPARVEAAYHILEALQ
T2 sequence (Q9EXV5 entry or part of it): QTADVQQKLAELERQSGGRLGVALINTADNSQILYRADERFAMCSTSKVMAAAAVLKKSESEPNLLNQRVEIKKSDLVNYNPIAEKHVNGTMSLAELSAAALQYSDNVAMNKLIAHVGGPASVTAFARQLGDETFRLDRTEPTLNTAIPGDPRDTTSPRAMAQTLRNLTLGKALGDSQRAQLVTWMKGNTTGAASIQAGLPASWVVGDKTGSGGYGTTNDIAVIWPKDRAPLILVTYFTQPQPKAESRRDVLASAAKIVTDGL
T3 sequence (P0A3M1 22-286): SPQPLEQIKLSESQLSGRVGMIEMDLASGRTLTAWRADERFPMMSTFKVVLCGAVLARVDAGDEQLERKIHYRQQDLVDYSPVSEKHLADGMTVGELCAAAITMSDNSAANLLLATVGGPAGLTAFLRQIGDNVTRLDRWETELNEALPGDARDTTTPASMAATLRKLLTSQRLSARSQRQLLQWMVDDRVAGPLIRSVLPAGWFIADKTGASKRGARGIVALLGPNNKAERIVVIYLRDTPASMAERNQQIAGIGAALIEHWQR

Compound	MIC of example compound, K. pneumoniae KPC-2 [1, 6] [µg/mL]	IC50 (OXA-23 β-lactamase) [nM]	IC50 (CTX-M15 β-lactamase) [nM]	IC50 (SHV-5 β-lactamase) [nM]	MIC of example compound, E. cloacae P99+ [2, 6] [µg/mL]	MIC of example compound, K. pneumoniae CTX-M-15 [3, 6] [µg/mL]	IC50 (KPC-2 β-lactamase) [nM]	MIC of example compound, E. coli SHV-5 [4, 6] [µg/mL]	IC50 (p99 AmpC β-lactamase; [7]) [nM]	MIC of example compound, P. aeruginosa VIM-2 [5] [µg/mL]	IC50 (p99 AmpC β-lactamase) [nM]	MIC of example compound, K. pneumoniae KPC-2 [1, 8] [µg/mL]	MIC of example compound, E. cloacae P99+ [2, 8] [µg/mL]	MIC of example compound, K. pneumoniae CTX-M-15 [3, 8] [µg/mL]	MIC of example compound, E. coli SHV-5 [4, 8] [µg/mL]	IC50 (CTX-M15 β-lactamase; nitrocefin 100 μM, 37° C., PBS pH 7.0, read-out: CTXM-15 IC50) [nM]	IC50 (SHV-5 β-lactamase; nitrocefin 100 μM, 37° C., PBS pH 7.0, read-out: SHV-5 IC50) [nM]	IC50 (KPC-2 β-lactamase; nitrocefin 100 μM, 37° C., PBS pH 7.0, read-out: KPC-2 IC50) [nM]
Nc1ccc(CC(=O)N[C@@H](Cc2cccc(C(=O)O)c2O)B(O)O)cn1 [Example 46, (1R)-1-(6-amino-pyridin-3-yl-acetylamino)-2-(2-hydroxy-3-carboxyphenyl)ethyl-1-boronic acid formate]	0.007	209	5	0.7	0.06	0.03	3	0.06	4	>8	–	–	–	–	–	–	–	–
CO/N=C(\C(=O)N[C@@H](Cc1cccc(C(=O)O)c1O)B(O)O)c1csc(NC(=O)CN)n1.Cl [Example 51, 3-(2(R)-{2-[2-(2-amino-acetylamino)-thiazol-4-yl]-2(Z)-methoxyimino-acetylamino}-2-borono-ethyl)-2-hydroxy-benzoic acid hydrochloride]	>8	–	40	15	>8	>8	58	>8	17	>8	–	–	–	–	–	–	–	–
CO/N=C(\C(=O)N[C@@H](Cc1cccc(C(=O)O)c1O)B(O)O)c1csc(NC(=O)[C@@H](N)CCCCN)n1 [Example 52, 3-(2(R)-{2-[2-(2(S),6-diamino-hexanoylamino)-thiazol-4-yl]-2(Z)-methoxyimino-acetylamino}-2-borono-ethyl)-2-hydroxy-benzoic acid hydrochloride]	2	–	55	26	>8	>8	89	>8	–	>8	8	–	–	–	–	–	–	–
O=C(Cc1ccc(CNc2ccccn2)cc1)N[C@@H](Cc1cccc(C(=O)O)c1O)B(O)O [Example 57, (1R)-1-{2-[4-(pyridin-2-ylaminomethyl)-phenyl]-acetylamino}-1-[(3-carboxy-2hydroxy)benzyl]-methylboronic acid formate]	–	156	4	2	–	–	13	–	3	–	–	4	4	>8	1	–	–	–
O=C(O)CNCc1ccc(CC(=O)N[C@@H](Cc2cccc(C(=O)O)c2O)B(O)O)cc1 [Example 58, (1R)-1-(2-{4-[(1-Carboxymethyl-amino)-methyl]-phenyl}-acetylamino)1-[(3-carboxy-2-hydroxy)benzyl]-methylboronic acid formate]	–	182	4	0.5	–	–	13	–	6	–	–	0.5	2	>8	0.5	–	–	–
(1R)-[4-(1-amino-cyclopropyl)]-benzoylamino]-(3-carboxy-2-hydroxy)benzyl-methylboronic acid formate [Example 22]	0.007	–	–	–	0.5	2	–	8	34	>8	–	–	–	–	–	0.6	> 1000	5

Source: US20100292185A1, “BETA-LACTAMASE INHIBITORS” (priority 2009, published 2010)
